Data reported in paper PMC3479139, “Diverse Small Molecule Inhibitors of Human Apurinic/Apyrimidinic Endonuclease APE1 Identified from a Screen of a Large Public Collection” (PLoS ONE, 2012).
Like-named read-outs stand apart in the source and are kept apart here.

What was measured:
APE1 [1] = biological target: T1, APE1 (Homo sapiens, UniProt P27695); test: Fluorogenic kinetic qHTS APE1 incision assay (primary screen and retest of cherrypicked samples); type: biochemical;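 further: purified APE1 cleaving a fluorophore/dark-quencher labelled 17-mer duplex DNA bearing a tetrahydrofuran AP site, fluorescence rise followed kinetically over the first 2 min, inhibition normalized to controls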
T1 construct: made in house

APE1 [2] = biological target: T1, APE1; test: Gel-based radiotracer (32P) APE1 incision assay; type: biochemical; parameters: concentration or dose not given beside the values; conditions: percent incision shown; entries 1-112;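 further: APE1 incision reactions ran 5 min at 37 °C, with cleaved product and intact substrate resolved electrophoretically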
APE1 [3] = biological target: T1, APE1; test: Fluorescence polarization (FP) displacement assay of APE1 binding to AP-DNA probe; conditions: read-out: FP IC50;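 further: TAMRA 5′-labeled duplex DNA with THF abasic site (5 nM) and APE1 (20 nM), Mg2+-free buffer, 15 min at room temperature, inhibition seen as lowered polarization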
[4] = biological target: double-stranded 17-mer DNA fragment; test: ThO (Thiazole Orange) DNA displacement assay; type: binding; conditions: read-out: ThO-DNA binding IC50;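 further: miniaturized displacement of the intercalating dye from unlabeled duplex DNA, used to flag nonspecific DNA binders, chiefly intercalators, groove binders may be missed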
E. coli Endo IV = biological target: T2, E. coli Endo IV (Escherichia coli, UniProt P0A6C1); test: E. coli Endo IV profiling counterscreen; type: biochemical;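 further: selectivity counterscreen of candidate APE1 inhibitors against the bacterial endonuclease Endo IV, run in the same assay format as the primary APE1 high-throughput screen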
T2 construct: made in house
Text: In order to screen out nonselective compounds, such as non-specific DNA binders and inhibitors of related enzymes, we used a miniaturized ThO DNA displacement assay and a counterscreen against the bacterial endonuclease E. coli Endo IV, respectively, following the previously published protocols [21].
To probe the selectivity of the candidate APE1 inhibitors, we tested them against E. coli EndoIV [36], employing the same assay as used in the HTS.

HeLa cells [5] = test: MMS potentiation assay (CellTiter Glo viability); type: cell-based, human; parameters: key: N.A., no activity observed; P, positive; I, inconclusive; N.T., not tested; conditions: potentiation of the genotoxic effect of methylmethane sulfonate
Protocol: HeLa cells were plated at 6000 cells/well in DMEM culture medium containing 10% FBS into white solid bottom 384-well cell culture plates. The plates were incubated at 37°C overnight for cell attachment, followed by media replacement. The fresh medium contained serial dilutions of compounds of interest in the presence (0.4 mM final) or absence of MMS. The plates were incubated for 24 h at 37°C. Cell viability was determined by luminescence detection after an addition of 15 µL of CellTiter Glo reagent (Promega, Madison, WI). Percent viability was calculated for each concentration of compound tested in duplicate by relating the corresponding luminescence to that of a negative DMSO vehicle control. MMS potentiation trends were defined as follows: negative (-), if cell viability in the compound-plus-MMS treatment was the same as that of the DMSO-plus-MMS control (overlapping dose-response curves); inconclusive (I), if the shift in the cell viability dose-response upon MMS inclusion relative to compound-alone was less than 30%; and positive (P), if the difference between the compound-plus-MMS and compound-alone curves was at least 30%, and maintained within at least a two-fold compound concentration span.
To examine the biological prospects of the top compounds, we tested their ability to inhibit APE1 DNA repair activity by assessing enhancement of MMS toxicity in mammalian cells. MMS creates methylated-base damage to genomic DNA, which, when excised by an alkylpurine DNA glycosylase, results in a high number of cytotoxic AP sites. We compared the viability of HeLa cells exposed to a dilution series of inhibitor alone to a combination of a fixed MMS concentration with the same dilution series of inhibitor by using a standard CellTiter Glo luminescence assay. This technique measures the number of viable cells in culture based on quantitation of the ATP present, which signals the presence of metabolically active cells. The assay was further optimized for 384-well plates, allowing a high-throughput testing of multiple hits at multiple concentrations, a scope of investigation previously impossible due to the very low throughput of the traditionally applied colony formation assay.
From the 223 compounds found positive in the gel-based APE1 assays, exclusion of the most promiscuous hits, that is, those that were both DNA binders and EndoIV-inhibitory, yielded a set of 170 compounds (Figure 3). This shortened group of hits was tested in the cell-based potentiation assay for their ability to dose-dependently enhance sensitivity of HeLa cells to the alkylating agent MMS.

HeLa cells [6] = test: AP site measurement in genomic DNA; type: cell-based, human; conditions: 275 µM MMS plus inhibitor; for AP site levels, combination treatment versus MMS-alone: 24 h, initial test (Figure 8)
Protocol: HeLa cells at 80% confluency (6×10^5 cells) were subjected to the following treatments in a 6-well plate for 24 hours at 37°C: 1) DMSO alone, 2) 275 µM MMS, 3) APE1 inhibitors dissolved in DMSO (5–20 µM final compound concentration), and 4) the inhibitors as in treatment 3 in combination with 275 µM MMS. Cells were then harvested and processed using a Qiagen Genomic DNA isolation kit (Germantown, MD). After DNA quantitation, AP sites were measured using the DNA Damage Quantification kit from Dojindo Molecular Technologies (Rockville, MD).
As stated above, the application of the genotoxic agent MMS results in an increase in the level of AP sites within the genome. An effective APE1-targeted inhibitor applied under the conditions of increased genotoxic stress is expected to interfere with the repair of AP sites, while ideally having no effect on the AP site levels when applied as a single agent. Thus, the net effect of treating cells with a combination of MMS and inhibitor would be an increase in the number of AP site lesions. To determine the effect on AP site accumulation caused by treatment with MMS in combination with an APE1 inhibitor, as compared to treatment with MMS or inhibitor alone, we measured AP site levels in the chromosomal DNA from HeLa cells using an aldehyde-reactive probe-based colorimetric assay. The concentrations of MMS and inhibitor (275 µM for MMS and between […] for the inhibitor, respectively) were selected to fall below the onset of cytotoxicity for each agent based on the analysis of the MMS potentiation data shown in Figure 5.

APE1 [7] = biological target: T1, APE1; test: Gel-based APE1 incision assay with fluorescence (TAMRA) detection; type: biochemical; conditions: estimated IC50, fluorophore detection; entries 113-223; read-out: F-PAGE Assay IC50
[8] = initial quantitative high-throughput screen, read-out: APE1 qHTS IC50
[9] = retest of cherrypicked sample, read-out: APE1 Retest IC50

T1 sequence (P27695 whole entry): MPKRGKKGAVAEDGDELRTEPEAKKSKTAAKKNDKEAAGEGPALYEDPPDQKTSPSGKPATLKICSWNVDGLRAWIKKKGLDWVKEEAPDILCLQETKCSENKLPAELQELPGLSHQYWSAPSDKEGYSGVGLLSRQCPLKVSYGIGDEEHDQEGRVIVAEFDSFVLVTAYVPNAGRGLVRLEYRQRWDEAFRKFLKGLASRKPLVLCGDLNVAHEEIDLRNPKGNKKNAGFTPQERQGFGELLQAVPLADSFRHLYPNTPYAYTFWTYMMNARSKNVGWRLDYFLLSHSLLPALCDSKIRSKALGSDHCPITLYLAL

COc1cc2c(ccc3cc(OC)c(OC)c(O)c32)cc1O [MLS000863573]
IC50 (APE1 [1]; [8]): 0.7 µM | IC50 (APE1 [1]; [9]): 0.6 µM | Radiotracer Assay (%Activity) (APE1 [2]): 4% | IC50 (APE1 [3]): 12.6 µM | IC50 [4]: 11.2 µM | IC50 (E. coli Endo IV): 8.9 µM | MMS Assay (HeLa cells [5]): P | AP site levels, combination treatment versus MMS-alone (HeLa cells [6]): no statistical significance

O=C(O)c1cccc(-n2cccc2/C=C/[N+](=O)[O-])c1 [MLS000778420]
IC50 (APE1 [1]; [8]): 3.9 µM | IC50 (APE1 [1]; [9]): 4.5 µM | Radiotracer Assay (%Activity) (APE1 [2]): 46% | IC50 (APE1 [3]): > 57 µM | IC50 [4]: > 57 µM | IC50 (E. coli Endo IV; read-out: EndoIV IC50): > 57 µM | MMS Assay (HeLa cells [5]): P

N#C/C(=C\c1ccc(O)c(O)c1)C(=O)Nc1cccc2ncccc12 [MLS001173932]
IC50 (APE1 [1]; [8]): 3 µM | IC50 (APE1 [1]; [9]): 5.1 µM | IC50 (APE1 [7]): 0.6 µM | IC50 (APE1 [3]): > 57 µM | IC50 [4]: 2 µM | IC50 (E. coli Endo IV; read-out: EndoIV IC50): > 57 µM | MMS Assay (HeLa cells [5]): I

CC(=O)Oc1cc(C(=O)OCC(=O)N2CCc3ccccc3C2)cc(OC(C)=O)c1OC(C)=O [MLS002252117]
IC50 (APE1 [1]; [8]): 5.3 µM | IC50 (APE1 [1]; [9]): 11.5 µM | IC50 (APE1 [7]): 4.5 µM | IC50 (APE1 [3]): > 57 µM | IC50 [4]: > 57 µM | IC50 (E. coli Endo IV; read-out: EndoIV IC50): > 57 µM | MMS Assay (HeLa cells [5]): I

O=C1COc2ccc(C(=O)COC(=O)/C=C/c3ccc(Br)o3)cc2N1 [MLS001142042]
IC50 (APE1 [1]; [8]): 4.7 µM | IC50 (APE1 [1]; [9]): 14.5 µM | IC50 (APE1 [7]): 2.2 µM | IC50 (APE1 [3]): > 57 µM | IC50 [4]: > 57 µM | IC50 (E. coli Endo IV; read-out: EndoIV IC50): > 57 µM | MMS Assay (HeLa cells [5]): I

COc1c(-c2ccc(O)cc2)oc2cc(O)cc(O)c2c1=O [MLS000877008]
IC50 (APE1 [1]; [8]): 1.1 µM | IC50 (APE1 [1]; [9]): 2.8 µM | Radiotracer Assay (%Activity) (APE1 [2]): 43% | IC50 (APE1 [3]): > 57 µM | IC50 [4]: > 57 µM | IC50 (E. coli Endo IV; read-out: EndoIV IC50): > 57 µM | MMS Assay (HeLa cells [5]): I

COc1ccc(CCn2c(O)cc3nn(-c4nc5ccccc5s4)c(=O)c-3c2C)cc1 [MLS000763226]
IC50 (APE1 [1]; [8]): 31.6 µM | IC50 (APE1 [1]; [9]): 15.8 µM | Radiotracer Assay (%Activity) (APE1 [2]): 20% | IC50 (APE1 [3]): > 57 µM | IC50 [4]: 10 µM | IC50 (E. coli Endo IV; read-out: EndoIV IC50): > 57 µM | MMS Assay (HeLa cells [5]): I

COc1ccc2c(c1)c(=O)oc1cc(OCC(=O)N3CCC(C)CC3)ccc12 [MLS000088142]
IC50 (APE1 [1]; [8]): 15.6 µM | IC50 (APE1 [1]; [9]): 5 µM | Radiotracer Assay (%Activity) (APE1 [2]): 29% | IC50 (APE1 [3]): 14.1 µM | IC50 [4]: > 57 µM | IC50 (E. coli Endo IV; read-out: EndoIV IC50): > 57 µM | MMS Assay (HeLa cells [5]): I

COc1ccc(Cc2nnc(NC(=O)Cc3cccs3)s2)cc1OC [MLS000115025]
IC50 (APE1 [1]; initial qHTS, 7-point titration, read-out: qHTS, IC50 obtained in the initial quantitative high-throughput screen): 28.1 µM | IC50 (APE1 [1]; [8]): 28.2 µM | IC50 (APE1 [1]; [9]): 2 µM | Radiotracer Assay (%Activity) (APE1 [2]): 48% | IC50 (APE1 [3]): > 57 µM | IC50 [4]: > 57 µM | IC50 (E. coli Endo IV; read-out: EndoIV IC50): > 57 µM | MMS Assay (HeLa cells [5]): P | AP site levels, combination versus MMS-alone, repeat testing (HeLa cells [6]; repeat test (Figure S1)): support the initially-observed enhancements | AP site levels, combination treatment versus MMS-alone (HeLa cells [6]): obscured by large standard deviations

CC1CCc2c(sc(NC(=O)/C=C/c3cccs3)c2C(=O)O)C1 (centres unmarked) [MLS000974674]
IC50 (APE1 [1]; [8]): 11.9 µM | IC50 (APE1 [1]; [9]): 45.7 µM | IC50 (APE1 [7]): 6.3 µM | IC50 (APE1 [3]): > 57 µM | IC50 [4]: 36.3 µM | IC50 (E. coli Endo IV; read-out: EndoIV IC50): > 57 µM | MMS Assay (HeLa cells [5]): P
